# Test results as given in patent US20240327320A1, “NOVEL ROUTES OF CHEMICAL SYNTHESIS OF 20S(OH)D3, 20S,25(OH)2D3, 20S,23S(OH)2D3, AND 20S,23R(OH)2D3 AND THEIR MODIFICATION OF THE IMMUNE ACTIVITY OF PBMCS” (United State Government as represen ted by the Department …, priority 2023, published 2024).
# Test system: Human epidermal keratinocytes (HEKn)
# Test: Gene expression of differentiation markers, quantitative RT-PCR
# Format: cell-based
# Details: 8 h, FIG. 7A, compared to 20S(OH)D3
# Experimental: RNA isolation and reverse transcription were performed as described previously (Slominski A T, et. al., (2021) Sci Rep 11(1) 8002). Quantitative RT-PCR was carried out using Sybr green Master Mix (Thermo Scientific, Waltham, MA), in triplicates as previously described (Slominski A T, et. al., (2021) Sci Rep 11(1) 8002; Janjetovic Z, et. al., (2014) J Pineal Res 57(1) 90-102). Human epidermal keratinocytes (HEKn) isolated from foreskin of white neonates were cultured until the third passage before treatment as described in the literature (Chaiprasongsuk A, et. al., (2019) Redox Biol 24 101206; Janjetovic Z, et. al., (2009) PloS one 4(6) e5988). Cells were treated with vitamin D3 derivatives for 8 h or 24 h and harvested for RNA isolation. Approximately 300 ng of RNA was used for cDNA synthesis and an equal amount of cDNA was used for PCR reactions. Cyclophilin B or GAPDH was used as an internal control. Primers sequences are listed in (Chaiprasongsuk A, et. al., (2020) Free Radic Biol Med 155 87-9845, Slominski A T, et. al., (2017) Sci Rep 7(1) 11434). Reactions were done in triplicate.
# Referring to FIG. 7A-D, stimulation of keratinocyte differentiation by 20S(OH)D3, 20S,25(OH)2D3, 20S,23S(OH)2D3 and 20S,23R(OH)2D3 in comparison to 1α,25(OH)2D3. […]
compound,measurement,value
"C=C1CC[C@H](O)C/C1=C/C=C1\CCC[C@@]2(C)[C@H]1CC[C@@H]2[C@@](C)(O)CCCC(C)(C)O [20S,25(OH)2D3, (20S)-20,25-Dihydroxyvitamin D3]","gene expression of involucrin, CK10, and filaggrin","slightly better at inducing gene expression of involucrin, CK10, and filaggrin"
